In one test the test system is HCV 1b-377-neo replicon cells. The test can be described thus: HCV replicon assay, HCV 1b-377-neo replicon cells (1b FRET). It is filed as cell-based, Hepatitis C virus genotype 1b. Particulars: HCV 1b-377-neo replicon cells; HCV 1b genotype; read-out: EC50 range against HCV 1b (Table 2, Range). The gist of the method:
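Compounds tested in HCV genotype 1b-377-neo replicon cells with a FRET read-out. Cells resistant to a reference NS5A inhibitor through a Y2065H NS5A mutation were run alongside wild-type cells.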
On the technique in general: In antiviral work, replicon cells carry a viral genome segment that copies itself.
A word on the EC50: it is the concentration giving half of the maximal effect. Turning to `O=C([C@@H](c1ccccc1)N1CCCC1)N1CCC[C@H]1c1ncc(-c2ccc(-c3ccc(-c4cnc([C@@H]5CCCN5C(=O)[C@@H](c5ccccc5)N5CCOCC5)[nH]4)cc3)cc2)[nH]1` [Example 96, 4-((1R)-2-oxo-1-phenyl-2-((2S)-2-(5-(4′-(2-((2S)-1-((2R)-2-phenyl-2-(pyrrolidinyl)acetyl)-2-pyrrolidinyl)-1H-imidazol-5-yl)-4-biphenylyl)-1H-imidazol-2-yl)-1-pyrrolidinyl)ethyl)morpholine], the EC50 was in the range of 0.001 to 0.999 nM.

The test is the same for the next values; noted with them: Hepatitis C virus, HCV 1b-377-neo replicon cells; HCV 1b genotype; read-out: EC50 range against HCV 1b (Table 2, Range).
Consider `CN(C)C(C(=O)N1CCC[C@H]1c1ncc(-c2ccc(-c3ccc(-c4cnc([C@@H]5CCCN5C(=O)[C@@H](c5ccccc5)N(C)C)[nH]4)cc3)cc2)[nH]1)c1cccnc1` (stereo partly drawn) [Example 94-45, 2-((2S)-2-(5-(4′-(2-((2S)-1-((2R)-2-(dimethylamino)-2-phenylacetyl)-2-pyrrolidinyl)-1H-imidazol-5-yl)-4-biphenylyl)-1H-imidazol-2-yl)-1-pyrrolidinyl)-N,N-dimethyl-2-oxo-1-(3-pyridinyl)ethanamine], for which the 50% effective concentration (EC50) is 0.001 to 0.999 nM.
Still for that read-out and setting: to `CO[C@@H](C(=O)N1CCC[C@H]1c1ncc(-c2ccc(-c3ccc(-c4cnc([C@@H]5CCCN5C(=O)[C@@H](c5ccccc5F)N(C)C)[nH]4)cc3)cc2)[nH]1)c1ccccc1` [Example 107-32, (1R)-1-(2-fluorophenyl)-2-((2S)-2-(5-(4′-(2-((2S)-1-((2R)-2-methoxy-2-phenylacetyl)-2-pyrrolidinyl)-1H-imidazol-5-yl)-4-biphenylyl)-1H-imidazol-2-yl)-1-pyrrolidinyl)-N,N-dimethyl-2-oxoethanamine] belongs 0.001 to 0.999 nM; to `CCOC(=O)N[C@H](C)C(=O)N1CCC[C@H]1c1ncc(-c2ccc(-c3ccc(-c4cnc([C@@H]5CCCN5C(=O)[C@@H](c5ccccc5)N(CC)CC)[nH]4)cc3)cc2)[nH]1` [Example M30, ethyl ((1R)-2-((2S)-2-(5-(4′-(2-((2S)-1-((2R)-2-(diethylamino)-2-phenylacetyl)-2-pyrrolidinyl)-1H-imidazol-5-yl)-4-biphenylyl)-1H-imidazol-2-yl)-1-pyrrolidinyl)-1-methyl-2-oxoethyl)carbamate], 1 to 99 nM; to `COC(=O)N[C@H](C(=O)N1CCC[C@H]1c1nc(-c2cnc(-c3ccc(-c4cnc([C@@H]5CCCN5C(=O)[C@@H](NC(=O)OC)C5CC5)[nH]4)cc3)nc2)c[nH]1)C1CC1` [Example D75, methyl ((1S)-1-cyclopropyl-2-((2S)-2-(5-(2-(4-(2-((2S)-1-((2S)-2-cyclopropyl-2-((methoxycarbonyl)amino)acetyl)-2-pyrrolidinyl)-1H-imidazol-5-yl)phenyl)-5-pyrimidinyl)-1H-imidazol-2-yl)-1-pyrrolidinyl)-2-oxoethyl)carbamate], 0.001 to 0.999 nM.
With `CCN(CC)[C@@H](C(=O)N1CCC[C@H]1c1ncc(-c2ccc(-c3ccc(-c4cnc([C@@H]5CCCN5C(=O)[C@H]5CCC[C@@H]5NC(=O)OC)[nH]4)cc3)cc2)[nH]1)c1ccccc1` [cj-116, methyl ((1S,2S)-2-(((2S)-2-(5-(4′-(2-((2S)-1-((2R)-2-(diethylamino)-2-phenylacetyl)-2-pyrrolidinyl)-1H-imidazol-5-yl)-4-biphenylyl)-1H-imidazol-2-yl)-1-pyrrolidinyl)carbonyl)cyclopentyl)carbamate], the concentration for a half-maximal effect (EC50) lay within 0.001 to 0.999 nM.
Same read-out and setting: as for `CNC(=O)N[C@H](C(=O)N1CCC[C@H]1c1nc(-c2ccc(-c3ccc(-c4c[nH]c([C@@H]5CCCN5C(=O)[C@@H](NC(=O)NC)C(C)C)n4)cc3)cc2)c[nH]1)C(C)C` [Example F63, 1-methyl-3-((1S)-2-methyl-1-(((2S)-2-(4-(4′-(2-((2S)-1-(N-(methylcarbamoyl)-L-valyl)-2-pyrrolidinyl)-1H-imidazol-4-yl)-4-biphenylyl)-1H-imidazol-2-yl)-1-pyrrolidinyl)carbonyl)propyl)urea], the figure is 0.001 to 0.999 nM; as for `Cc1cc(-c2cnc([C@@H]3CCCN3C(=O)[C@@H](c3ccccc3)N(C)C)[nH]2)ccc1-c1ccc(-c2cnc([C@@H]3CCCN3C(=O)[C@@H](c3ccccc3)N(C)C)[nH]2)cn1` [Example 136, (1R)-2-((2S)-2-(5-(6-(4-(2-((2S)-1-((2R)-2-(dimethylamino)-2-phenylacetyl)-2-pyrrolidinyl)-1H-imidazol-5-yl)-2-methylphenyl)-3-pyridinyl)-1H-imidazol-2-yl)-1-pyrrolidinyl)-N,N-dimethyl-2-oxo-1-phenylethanamine], 0.001 to 0.999 nM; as for `COC(=O)N[C@H](C(=O)N1[C@@H](c2ncc(-c3ccc(-c4ccc(-c5cnc([C@H]6C[C@H]7C[C@H]7N6C(=O)[C@@H](NC(=O)OC)C(C)C)[nH]5)cc4)cc3)[nH]2)C[C@H]2C[C@H]21)C(C)C` [Example M131, methyl ((1S)-1-(((1R,3R,5R)-3-(5-(4′-(2-((1R,3R,5R)-2-((2S)-2-((methoxycarbonyl)amino)-3-methylbutanoyl)-2-azabicyclo[3.1.0]hex-3-yl)-1H-imidazol-5-yl)-4-biphenylyl)-1H-imidazol-2-yl)-2-azabicyclo[3.1.0]hex-2-yl)carbonyl)-2-methylpropyl)carbamate], 0.001 to 0.999 nM.
Consider `COC(=O)N[C@@H](C(=O)N1CCC[C@H]1c1ncc(-c2ccc(-c3ccc(-c4cnc([C@@H]5CCCN5C(=O)Cc5ccccc5C)[nH]4)cc3)cc2)[nH]1)c1ccccc1` [Example 84-69, methyl ((1R)-2-((2S)-2-(5-(4′-(2-((2S)-1-((2-methylphenyl)acetyl)-2-pyrrolidinyl)-1H-imidazol-5-yl)-4-biphenylyl)-1H-imidazol-2-yl)-1-pyrrolidinyl)-2-oxo-1-phenylethyl)carbamate], for which the EC50 lay in the range of 0.001 to 0.999 nM.
The same measure, in the same setting: as for `COC(=O)N[C@H](C(=O)N1CCC[C@H]1c1ncc(-c2ccc(-c3ccc(-c4cnc([C@]5(C)CCCN5C(=O)[C@@H](NC(=O)OC)C(C)C)[nH]4)cc3)cc2)[nH]1)C(C)C` [LS36, methyl ((1S)-1-(((2S)-2-(5-(4′-(2-((2S)-1-((2S)-2-((methoxycarbonyl)amino)-3-methylbutanoyl)-2-pyrrolidinyl)-1H-imidazol-5-yl)-4-biphenylyl)-1H-imidazol-2-yl)-2-methyl-1-pyrrolidinyl)carbonyl)-2-methylpropyl)carbamate], the figure is 0.001 to 0.999 nM; as for `COC(=O)N[C@@H](C(=O)N1CCC[C@H]1c1ncc(-c2ccc(-c3ccc(-c4cnc([C@@H]5CCCN5C(=O)C(c5ccccc5C(F)(F)F)N(C)C)[nH]4)cc3)cc2)[nH]1)c1ccccc1` (stereo partly drawn) [Example 84-55, methyl ((1R)-2-((2S)-2-(5-(4′-(2-((2S)-1-((dimethylamino)(2-(trifluoromethyl)phenyl)acetyl)-2-pyrrolidinyl)-1H-imidazol-5-yl)-4-biphenylyl)-1H-imidazol-2-yl)-1-pyrrolidinyl)-2-oxo-1-phenylethyl)carbamate], 0.001 to 0.999 nM.
On the same count and under the same terms, to `COC(=O)N[C@@H](C(=O)N1CCC[C@H]1c1ncc(-c2ccc(-c3ccc(-c4cnc([C@@H]5CCCN5C(=O)c5ncco5)[nH]4)cc3)cc2)[nH]1)c1ccccc1` [Example 71, methyl ((1R)-2-((2S)-2-(5-(4′-(2-((2S)-1-(1,3-oxazol-2-ylcarbonyl)-2-pyrrolidinyl)-1H-imidazol-5-yl)-4-biphenylyl)-1H-imidazol-2-yl)-1-pyrrolidinyl)-2-oxo-1-phenylethyl)carbamate] belongs 0.001 to 0.999 nM.

The values are drawn from patent US8574563B2 (Bristol-Myers Squibb Company, priority 2006, dated 2013).
